Tests used:
Assay in all cases: biochemical
Set-up in all cases: Invitrogen kinase panel: Z'Lyte activity (ATP at Km) or LanthaScreen competitive ATP-site binding, percent inhibition
ERK2 = target: T1, ERK2 (Homo sapiens, UniProt P28482)
T1 construct: gene MAPK1

GSK3_beta = target: T2, GSK3_beta (Homo sapiens, UniProt P49841)
T2 construct: gene GSK3B

Yes = target: T3, Yes (Homo sapiens, UniProt P07947)
T3 construct: gene YES1

CDK2/cyclinA = CDK2/cyclinA (Homo sapiens, UniProt P24941)
FGFR1 = FGFR1 (Homo sapiens, UniProt P11362)
Lyn = Lyn (Homo sapiens, UniProt P07948)
Fgr = Fgr (Homo sapiens, UniProt P09769)
CDK1/cyclinB = CDK1/cyclinB (Homo sapiens, UniProt P06493)
PKC_beta1 = target: T4, PKC_beta1 (Homo sapiens, UniProt P05771)
T4 construct: gene PRKCB; isoform beta1

TBK1 = target: T5, TBK1 (Homo sapiens, UniProt Q9UHD2)
T5 sequence (Q9UHD2 1-729): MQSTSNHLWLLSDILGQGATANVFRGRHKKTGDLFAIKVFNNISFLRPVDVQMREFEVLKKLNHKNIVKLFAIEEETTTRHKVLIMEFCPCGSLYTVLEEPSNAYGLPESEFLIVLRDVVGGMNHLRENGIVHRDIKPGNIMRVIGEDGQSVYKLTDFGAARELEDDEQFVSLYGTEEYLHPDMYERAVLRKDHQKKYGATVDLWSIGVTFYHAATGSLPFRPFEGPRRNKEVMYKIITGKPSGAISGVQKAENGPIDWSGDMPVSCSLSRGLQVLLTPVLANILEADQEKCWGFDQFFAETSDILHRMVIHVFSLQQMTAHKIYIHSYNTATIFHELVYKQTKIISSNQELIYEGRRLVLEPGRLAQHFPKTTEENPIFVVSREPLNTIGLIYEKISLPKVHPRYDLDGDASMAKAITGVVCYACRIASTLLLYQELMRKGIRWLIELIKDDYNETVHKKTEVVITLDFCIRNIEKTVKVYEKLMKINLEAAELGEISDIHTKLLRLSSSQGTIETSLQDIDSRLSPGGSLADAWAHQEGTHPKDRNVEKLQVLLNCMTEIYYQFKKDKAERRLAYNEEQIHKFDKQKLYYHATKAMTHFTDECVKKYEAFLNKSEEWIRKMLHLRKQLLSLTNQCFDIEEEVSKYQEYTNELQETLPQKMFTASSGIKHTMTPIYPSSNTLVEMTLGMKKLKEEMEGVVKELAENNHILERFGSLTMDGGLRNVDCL

EphA7 = EphA7 (Homo sapiens, UniProt Q15375)
Lck = Lck (Homo sapiens, UniProt P06239)
Srm = target: T6, Srm (Homo sapiens, UniProt Q9H3Y6)
T6 construct: gene SRMS

Aurora_A = target: T7, Aurora_A (Homo sapiens, UniProt O14965)
T7 construct: gene AURKA
T7 sequence (O14965 1-403): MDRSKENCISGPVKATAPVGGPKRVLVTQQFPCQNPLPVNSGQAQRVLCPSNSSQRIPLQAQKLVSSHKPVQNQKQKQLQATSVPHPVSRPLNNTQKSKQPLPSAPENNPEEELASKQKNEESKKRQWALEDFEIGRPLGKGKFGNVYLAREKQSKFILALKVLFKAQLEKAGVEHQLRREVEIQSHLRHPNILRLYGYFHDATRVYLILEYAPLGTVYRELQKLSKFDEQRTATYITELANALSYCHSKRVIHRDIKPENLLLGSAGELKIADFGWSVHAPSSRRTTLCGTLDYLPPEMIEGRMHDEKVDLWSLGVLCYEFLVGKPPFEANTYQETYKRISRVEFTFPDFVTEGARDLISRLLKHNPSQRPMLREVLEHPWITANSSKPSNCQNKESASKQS

Sequence of CDK1/cyclinB (P06493 whole entry): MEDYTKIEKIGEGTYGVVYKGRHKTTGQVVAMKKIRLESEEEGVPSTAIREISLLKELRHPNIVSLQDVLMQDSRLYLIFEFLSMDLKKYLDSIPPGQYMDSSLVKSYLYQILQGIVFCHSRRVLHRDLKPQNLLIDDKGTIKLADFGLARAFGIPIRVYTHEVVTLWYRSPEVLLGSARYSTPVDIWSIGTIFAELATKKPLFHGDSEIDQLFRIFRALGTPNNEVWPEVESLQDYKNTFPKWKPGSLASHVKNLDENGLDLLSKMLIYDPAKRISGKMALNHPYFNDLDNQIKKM
Sequence of CDK1/cyclinB (P14635 whole entry partner): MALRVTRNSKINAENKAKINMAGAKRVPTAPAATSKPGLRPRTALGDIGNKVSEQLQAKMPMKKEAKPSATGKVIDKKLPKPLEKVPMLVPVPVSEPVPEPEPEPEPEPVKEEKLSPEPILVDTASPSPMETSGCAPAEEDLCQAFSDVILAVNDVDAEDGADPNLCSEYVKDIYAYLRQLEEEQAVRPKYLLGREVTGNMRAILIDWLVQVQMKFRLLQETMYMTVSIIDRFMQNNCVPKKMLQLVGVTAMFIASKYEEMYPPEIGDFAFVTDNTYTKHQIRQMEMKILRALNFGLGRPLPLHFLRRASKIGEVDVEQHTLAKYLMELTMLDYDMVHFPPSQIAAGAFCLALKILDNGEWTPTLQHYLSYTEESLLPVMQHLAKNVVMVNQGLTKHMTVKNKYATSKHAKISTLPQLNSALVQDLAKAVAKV
Sequence of FGFR1 (P11362 whole entry): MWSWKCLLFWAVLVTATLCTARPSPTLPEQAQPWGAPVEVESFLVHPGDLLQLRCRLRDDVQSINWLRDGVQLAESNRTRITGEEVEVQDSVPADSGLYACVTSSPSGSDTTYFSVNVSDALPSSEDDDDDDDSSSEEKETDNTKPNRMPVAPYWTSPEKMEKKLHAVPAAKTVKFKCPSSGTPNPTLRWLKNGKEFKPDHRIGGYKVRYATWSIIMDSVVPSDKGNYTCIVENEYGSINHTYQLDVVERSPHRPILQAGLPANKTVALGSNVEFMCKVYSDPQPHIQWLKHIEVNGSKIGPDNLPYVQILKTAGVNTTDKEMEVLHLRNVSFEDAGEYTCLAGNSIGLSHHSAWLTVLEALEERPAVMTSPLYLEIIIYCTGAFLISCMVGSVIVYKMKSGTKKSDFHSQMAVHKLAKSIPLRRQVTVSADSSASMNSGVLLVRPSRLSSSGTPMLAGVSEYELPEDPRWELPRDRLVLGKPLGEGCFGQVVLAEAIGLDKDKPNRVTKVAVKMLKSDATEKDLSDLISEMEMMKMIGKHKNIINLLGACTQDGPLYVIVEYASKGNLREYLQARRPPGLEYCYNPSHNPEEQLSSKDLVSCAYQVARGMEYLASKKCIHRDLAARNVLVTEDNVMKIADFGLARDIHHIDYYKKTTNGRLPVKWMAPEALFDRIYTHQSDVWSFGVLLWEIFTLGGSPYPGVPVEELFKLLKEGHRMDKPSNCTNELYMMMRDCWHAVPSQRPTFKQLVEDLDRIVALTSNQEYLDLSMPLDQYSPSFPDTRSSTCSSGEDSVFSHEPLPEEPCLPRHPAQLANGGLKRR
T2 sequence (P49841 whole entry): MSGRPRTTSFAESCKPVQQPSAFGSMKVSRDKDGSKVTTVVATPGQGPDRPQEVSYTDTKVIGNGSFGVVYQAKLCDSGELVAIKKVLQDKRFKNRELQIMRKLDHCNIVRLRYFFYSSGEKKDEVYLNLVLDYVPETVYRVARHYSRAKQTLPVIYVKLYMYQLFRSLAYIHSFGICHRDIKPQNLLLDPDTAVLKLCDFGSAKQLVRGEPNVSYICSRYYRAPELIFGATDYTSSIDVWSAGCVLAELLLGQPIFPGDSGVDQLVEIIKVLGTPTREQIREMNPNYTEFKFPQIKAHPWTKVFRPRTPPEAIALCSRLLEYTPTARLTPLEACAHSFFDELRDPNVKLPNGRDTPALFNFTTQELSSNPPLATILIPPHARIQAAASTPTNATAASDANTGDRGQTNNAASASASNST
Sequence of Fgr (P09769 whole entry): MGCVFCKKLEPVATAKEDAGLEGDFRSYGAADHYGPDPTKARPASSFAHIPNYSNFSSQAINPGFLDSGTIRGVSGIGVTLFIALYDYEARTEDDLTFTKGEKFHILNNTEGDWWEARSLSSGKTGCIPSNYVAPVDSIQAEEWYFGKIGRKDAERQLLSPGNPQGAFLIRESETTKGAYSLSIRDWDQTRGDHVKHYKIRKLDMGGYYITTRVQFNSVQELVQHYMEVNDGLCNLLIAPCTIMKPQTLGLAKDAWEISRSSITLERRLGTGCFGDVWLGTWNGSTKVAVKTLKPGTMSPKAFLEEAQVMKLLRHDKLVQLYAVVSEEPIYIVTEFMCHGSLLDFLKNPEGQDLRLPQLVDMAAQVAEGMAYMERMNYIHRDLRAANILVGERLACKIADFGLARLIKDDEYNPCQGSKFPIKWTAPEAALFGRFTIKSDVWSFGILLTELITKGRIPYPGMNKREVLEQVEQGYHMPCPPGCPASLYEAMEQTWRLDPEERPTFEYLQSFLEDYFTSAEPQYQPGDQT
T6 sequence (Q9H3Y6 whole entry): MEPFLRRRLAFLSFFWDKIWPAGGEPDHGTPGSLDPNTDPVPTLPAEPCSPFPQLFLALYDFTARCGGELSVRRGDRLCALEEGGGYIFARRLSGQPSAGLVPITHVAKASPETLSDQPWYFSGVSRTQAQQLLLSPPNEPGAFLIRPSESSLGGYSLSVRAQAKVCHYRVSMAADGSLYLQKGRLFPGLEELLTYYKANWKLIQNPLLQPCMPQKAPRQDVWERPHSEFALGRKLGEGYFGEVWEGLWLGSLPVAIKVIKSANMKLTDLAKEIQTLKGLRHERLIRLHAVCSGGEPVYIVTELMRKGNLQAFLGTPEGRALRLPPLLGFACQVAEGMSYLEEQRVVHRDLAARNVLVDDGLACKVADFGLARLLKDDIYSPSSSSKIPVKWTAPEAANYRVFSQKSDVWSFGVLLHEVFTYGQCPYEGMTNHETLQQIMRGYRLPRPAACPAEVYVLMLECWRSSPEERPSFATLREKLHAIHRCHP
Sequence of EphA7 (Q15375 whole entry): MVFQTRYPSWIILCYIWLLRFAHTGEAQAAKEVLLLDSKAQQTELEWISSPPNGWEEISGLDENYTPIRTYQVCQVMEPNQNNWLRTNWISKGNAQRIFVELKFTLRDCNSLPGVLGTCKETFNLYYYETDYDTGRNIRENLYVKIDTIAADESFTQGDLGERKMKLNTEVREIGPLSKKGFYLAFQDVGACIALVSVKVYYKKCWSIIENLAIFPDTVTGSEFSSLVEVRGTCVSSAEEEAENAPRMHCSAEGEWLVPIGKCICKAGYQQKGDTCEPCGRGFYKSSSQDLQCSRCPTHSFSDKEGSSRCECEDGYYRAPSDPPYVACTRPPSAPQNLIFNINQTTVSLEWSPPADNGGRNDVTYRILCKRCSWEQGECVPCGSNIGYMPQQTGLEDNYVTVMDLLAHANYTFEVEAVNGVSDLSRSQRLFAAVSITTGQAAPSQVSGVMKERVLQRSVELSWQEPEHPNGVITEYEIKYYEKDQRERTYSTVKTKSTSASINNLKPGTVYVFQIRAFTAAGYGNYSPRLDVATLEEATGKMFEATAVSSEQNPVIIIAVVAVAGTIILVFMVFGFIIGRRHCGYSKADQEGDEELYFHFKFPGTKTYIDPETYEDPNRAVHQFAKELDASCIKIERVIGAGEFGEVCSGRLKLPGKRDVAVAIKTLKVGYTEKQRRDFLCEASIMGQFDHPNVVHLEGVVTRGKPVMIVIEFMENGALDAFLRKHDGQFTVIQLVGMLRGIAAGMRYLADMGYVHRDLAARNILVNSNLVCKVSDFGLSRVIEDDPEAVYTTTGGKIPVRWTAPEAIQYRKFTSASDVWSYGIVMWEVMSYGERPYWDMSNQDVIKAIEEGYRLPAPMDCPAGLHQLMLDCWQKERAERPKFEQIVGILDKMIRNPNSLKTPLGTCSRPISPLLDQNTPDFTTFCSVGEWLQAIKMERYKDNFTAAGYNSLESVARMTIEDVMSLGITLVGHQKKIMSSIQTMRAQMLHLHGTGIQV
T3 sequence (P07947 whole entry): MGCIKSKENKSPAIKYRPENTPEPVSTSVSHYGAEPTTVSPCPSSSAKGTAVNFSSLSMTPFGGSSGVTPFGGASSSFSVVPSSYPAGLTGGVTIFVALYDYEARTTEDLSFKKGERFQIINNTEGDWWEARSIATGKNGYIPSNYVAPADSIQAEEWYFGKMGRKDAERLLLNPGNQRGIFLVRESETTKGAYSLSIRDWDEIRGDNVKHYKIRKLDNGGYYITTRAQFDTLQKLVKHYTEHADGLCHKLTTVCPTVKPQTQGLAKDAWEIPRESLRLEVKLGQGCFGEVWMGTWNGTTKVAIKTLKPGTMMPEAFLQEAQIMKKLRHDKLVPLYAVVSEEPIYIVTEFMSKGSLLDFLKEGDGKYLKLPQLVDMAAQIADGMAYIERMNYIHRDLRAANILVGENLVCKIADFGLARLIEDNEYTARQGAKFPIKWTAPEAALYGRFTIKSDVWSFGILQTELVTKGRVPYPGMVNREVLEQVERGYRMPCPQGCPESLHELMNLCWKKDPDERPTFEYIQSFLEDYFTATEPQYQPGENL
T1 sequence (P28482 whole entry): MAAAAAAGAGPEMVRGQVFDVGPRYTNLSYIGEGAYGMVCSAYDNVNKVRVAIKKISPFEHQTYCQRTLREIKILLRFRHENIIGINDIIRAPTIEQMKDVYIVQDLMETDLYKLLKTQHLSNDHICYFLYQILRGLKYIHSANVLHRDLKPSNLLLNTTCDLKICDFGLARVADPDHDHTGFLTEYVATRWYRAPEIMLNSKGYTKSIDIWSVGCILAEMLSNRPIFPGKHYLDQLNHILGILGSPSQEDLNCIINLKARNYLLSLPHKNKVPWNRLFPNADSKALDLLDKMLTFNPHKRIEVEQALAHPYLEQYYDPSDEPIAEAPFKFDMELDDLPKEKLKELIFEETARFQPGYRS

SMILES: CCOC(=O)Nc1cccc2c(Oc3ncccc3-c3ccnc(N[C@H]4CCCNC4)n3)c(C)ccc12 [G-1749]
- inhibition at 1 µM (ERK2): 6%
- inhibition at 1 µM (GSK3_beta): 0.5%
- inhibition at 1 µM (Yes): 7.5%
- inhibition at 1 µM (CDK2/cyclinA): 6.5%
- inhibition at 1 µM (FGFR1): 14%
- inhibition at 1 µM (Lyn): 6.5%
- inhibition at 1 µM (Fgr): 1.5%
- inhibition at 1 µM (CDK1/cyclinB): 6.5%
- inhibition at 1 µM (PKC_beta1): 5.5%
- inhibition at 1 µM (TBK1): -0.5%
- inhibition at 1 µM (EphA7): 9.5%
- inhibition at 1 µM (Lck): 13.5%
- inhibition at 1 µM (Srm): -4.5%
- inhibition at 1 µM (Aurora_A): -9.5%

SMILES: CC#CC(=O)Nc1cccc2c(Oc3ncccc3-c3ccnc(N[C@H]4CCCNC4)n3)c(C)ccc12 [G-7658]
- inhibition at 1 µM (ERK2): 2%
- inhibition at 1 µM (GSK3_beta): 7.5%
- inhibition at 1 µM (Yes): 8%
- inhibition at 1 µM (CDK2/cyclinA): 6%
- inhibition at 1 µM (FGFR1): 13%
- inhibition at 1 µM (Lyn): 13%
- inhibition at 1 µM (Fgr): 6%
- inhibition at 1 µM (CDK1/cyclinB): 7.5%
- inhibition at 1 µM (PKC_beta1): 5.5%
- inhibition at 1 µM (TBK1): 0%
- inhibition at 1 µM (EphA7): -1%
- inhibition at 1 µM (Lck): -28.5%
- inhibition at 1 µM (Srm): 3%
- inhibition at 1 µM (Aurora_A): -7%

SMILES: O=c1cc(-c2n[nH]c3ncc(-c4c(F)cccc4F)cc23)nc(N2CCC(O)CC2)[nH]1 [G-9807]
- inhibition at 1 µM (ERK2): 78.3%
- inhibition at 1 µM (GSK3_beta): 99.1%
- inhibition at 1 µM (Yes): 52.4%
- inhibition at 1 µM (CDK2/cyclinA): 100%
- inhibition at 1 µM (FGFR1): 83.8%
- inhibition at 1 µM (Lyn): 87.1%
- inhibition at 1 µM (Fgr): 77.1%
- inhibition at 1 µM (CDK1/cyclinB): 96.5%
- inhibition at 1 µM (PKC_beta1): 66.7%
- inhibition at 1 µM (TBK1): 95.7%
- inhibition at 1 µM (EphA7): 84.2%
- inhibition at 1 µM (Lck): 87.2%
- inhibition at 1 µM (Srm): 67.6%
- inhibition at 1 µM (Aurora_A): 92%

— PMC7736581, “Activation of the IRE1 RNase through remodeling of the kinase front pocket by ATP-competitive ligands” (Nature Communications, 2020)
